# From patent EP1561465A2, “Methods of use of fluoroquinolone compounds against bacteria” (LG Life Sciences, Ltd., priority 1999, dated 2001)
# Where “and” joins values, the source holds several entries; their conditions need not be identical. Equal entries are not always repeated. Where two headings read alike, the source gives them in different places.
# Tests used:
# Shigella spp. [1] = test: MIC by agar dilution (NCCLS M7-A4), 288 enteropathogenic isolates, gemifloxacin and 15 other antimicrobials; type: cell-based; details: Shigella spp. N= 21
# Description: [A. hydrophila (12), and A. sobria (4)], and 91 Campylobacter jejuni. […] The strains were stored in skimmed-milk at -80 °C until studied.
# The plates were incubated aerobically at 35 °C for 24 h, except for Campylobacter jejuni, where a microaerophilic atmosphere was obtained by using Campy Pack (Becton Dickinson, Cockeysville, MD, USA), and incubation was for 48 h. All organisms were tested with an inoculum of ≅ 10^4 cfu/spot. MICs were defined as the lower antibiotic concentration with no visible growth.
# Yersinia enterocolitica [2] = test: MIC by agar dilution (NCCLS M7-A4), 288 enteropathogenic isolates, eight quinolones; type: cell-based
# Hafnia alvei [3] = test: as above; type: cell-based
# Salmonella spp. [4] = test: as above; type: cell-based
# Hafnia alvei [5] = test: MIC by agar dilution (NCCLS M7-A4), 288 enteropathogenic isolates, gemifloxacin and 15 other antimicrobials; type: cell-based; details: Hafnia alvei
# Shigella spp. [6] = test: MIC by agar dilution (NCCLS M7-A4), 288 enteropathogenic isolates, eight quinolones; type: cell-based
# Campylobacter jejuni [7] = test: MIC by agar dilution (NCCLS M7-A4), 288 enteropathogenic isolates, gemifloxacin and 15 other antimicrobials; details: Campylobacter jejuni
# Aeromonas spp. [8] = test: MIC by agar dilution (NCCLS M7-A4), 288 enteropathogenic isolates, eight quinolones; type: cell-based
# Salmonella spp. [9] = test: MIC by agar dilution (NCCLS M7-A4), 288 enteropathogenic isolates, gemifloxacin and 15 other antimicrobials; type: cell-based
# Aeromonas spp. [10] = test: as above; type: cell-based; details: for MIC: Aeromonas
# Campylobacter jejuni [11] = test: MIC by agar dilution (NCCLS M7-A4), 5% sheep blood, microaerophilic 48 h; type: cell-based
# Yersinia enterocolitica [12] = test: MIC by agar dilution (NCCLS M7-A4), 288 enteropathogenic isolates, gemifloxacin and 15 other antimicrobials; type: cell-based; details: Yersinia enterocolitica
# Streptococcus pneumoniae [13] = test: MIC by agar dilution (NCCLS), 411 isolates Buenos Aires 1998-99; type: cell-based; details: Streptococcus pneumoniae, S. pneumoniae, read-out: MIC90
# Streptococcus pneumoniae [14] = test: MIC by E-test (broth microdilution for gemifloxacin), 107 pneumococcal carrier isolates, Athens 1998; type: cell-based; details: E-test; for MIC Range: in µg/mL (unit assumed)
# Description: Susceptibility testing was performed by agar dilution or epsilometer method (E-test), as recommended by the NCCLS. […] The susceptibility profiles of the strains were assessed using the Epsilometer method (E-test). The isolates were subdivided into two groups according to their penicillin susceptibility patterns (penicillin-susceptible and penicillin-intermediate.
# Staphylococcus aureus = test: MIC by agar macrodilution (NCCLS), 373 Gram positive isolates, Athens 1998; type: cell-based; details: Methicillin-susceptible Staphylococcus aureus (n = 85)
# Enterococcus faecalis = test: as above; type: cell-based
# Enterococcus faecium = test: as above; type: cell-based
# [15] = 24 h, read-out: MIC (mg/L) Range
# [16] = Penicillin-intermediate S. pneumoniae (n = 24), unit assumed
# [17] = Penicillin-susceptible S. pneumoniae (n = 107), unit assumed
# [18] = number of isolates with MIC […] µg/ml
# [19] = number of isolates with MIC […]
# [20] = number of isolates at MIC […], n = 81
# [21] = number of isolates at MIC […], n = 14
compound,measurement,setting,value
"CCn1cc(C(=O)O)c(=O)c2ccc(C)nc21 [Nalidixic acid, nalidixic acid]",MIC,Shigella spp. [1]; [15],1 to 2 mg/L
same,MIC,Shigella spp. [1]; read-out: MIC (mg/L) 50%,1 mg/L
same,MIC,Shigella spp. [1]; read-out: MIC (mg/L) 90%,2 mg/L
same,Non-susceptibility rate,Yersinia enterocolitica [2]; Y. enterocolitica,4.5%
same,MIC50,Yersinia enterocolitica [2]; Yersinia enterocolitica,2 µg/mL
same,MIC90,Yersinia enterocolitica [2]; Yersinia enterocolitica,2 µg/mL
same,% Susceptible,Yersinia enterocolitica [2]; Yersinia enterocolitica (n = 22),95.5%
same,Non-susceptibility rate,Hafnia alvei [3]; H. alvei,0%
same,MIC50,Hafnia alvei [3]; Hafnia alvei,2 µg/mL
same,MIC90,Hafnia alvei [3]; Hafnia alvei,2 µg/mL
same,% Susceptible,Hafnia alvei [3]; Hafnia alvei (n = 32),100%
same,MIC Range,Hafnia alvei [3]; Hafnia alvei (n = 32),1 to 2 µg/mL
same,MIC,Salmonella spp. [4],> 128 µg/mL
same,MIC,Salmonella spp. [4]; Salmonella,> 128 µg/mL
same,MIC50,Salmonella spp. [4]; Salmonella,4 µg/mL
same,MIC90,Salmonella spp. [4]; Salmonella,> 128 µg/mL
same,Non-susceptibility rate,Salmonella spp. [4]; Salmonella spp.,27%
same,% Susceptible,Salmonella spp. [4]; Salmonella spp. (n = 106),73%
same,MIC,Hafnia alvei [5]; [15],1 to 2 mg/L
same,MIC,Hafnia alvei [5]; read-out: MIC (mg/L) 50%,2 mg/L
same,MIC,Hafnia alvei [5]; read-out: MIC (mg/L) 90%,2 mg/L
same,Non-susceptibility rate,Shigella spp. [6]; Shigella spp.,0%
same,% Susceptible,Shigella spp. [6]; Shigella spp. (n = 21),100%
same,MIC50,Shigella spp. [6]; Shigella spp. (n = 21),1 µg/mL
same,MIC90,Shigella spp. [6]; Shigella spp. (n = 21),2 µg/mL
same,MIC Range,Shigella spp. [6]; Shigella spp. (n = 21),1 to 2 µg/mL
same,MIC,Campylobacter jejuni [7]; read-out: MIC (mg/L) 50%,> 128 mg/L
same,MIC,Campylobacter jejuni [7]; read-out: MIC (mg/L) 90%,> 128 mg/L
same,MIC50,Aeromonas spp. [8]; Aeromonas,0.12 µg/mL
same,MIC90,Aeromonas spp. [8]; Aeromonas,0.25 µg/mL
same,Non-susceptibility rate,Aeromonas spp. [8]; Aeromonas spp.,6.25% and 6.3%
same,% Susceptible,Aeromonas spp. [8]; Aeromonas spp. (n = 16),93.75%
same,MIC,Salmonella spp. [9],> 128 mg/L
same,MIC,"Salmonella spp. [9]; S. hadar(2), isolates with MICs for ciprofloxacin ≥[…]",>128 mg/L
same,MIC,Salmonella spp. [9]; Salmonella,> 128 mg/L
same,Rates of non-susceptible microorganisms,Salmonella spp. [9]; Salmonella spp.,27%
same,MIC,"Salmonella spp. [9]; Salmonella, read-out: MIC (mg/L) 50%",4 mg/L
same,MIC,"Salmonella spp. [9]; Salmonella, read-out: MIC (mg/L) 90%",> 128 mg/L
same,Rates of non-susceptible microorganisms,Aeromonas spp. [10]; Aeromonas spp.,6%
same,MIC,Aeromonas spp. [10]; read-out: MIC (mg/L) 50%,0.12 mg/L
same,MIC,Aeromonas spp. [10]; read-out: MIC (mg/L) 90%,0.25 mg/L
same,Non-susceptibility rate,Campylobacter jejuni [11]; C. jejuni,69.24%
same,MIC50,Campylobacter jejuni [11]; Campylobacter jejuni,> 128 µg/mL
same,MIC90,Campylobacter jejuni [11]; Campylobacter jejuni,> 128 µg/mL
same,% Susceptible,Campylobacter jejuni [11]; Campylobacter jejuni (n=91),30.76%
same,Rates of non-susceptible microorganisms,Yersinia enterocolitica [12],5%
same,MIC,Yersinia enterocolitica [12]; read-out: MIC (mg/L) 50%,2 mg/L
same,MIC,Yersinia enterocolitica [12]; read-out: MIC (mg/L) 90%,2 mg/L
"CC[C@H]1OC(=O)[C@H](C)[C@@H](O[C@H]2C[C@@](C)(OC)[C@@H](O)[C@H](C)O2)[C@H](C)[C@@H](O[C@@H]2O[C@H](C)C[C@H](N(C)C)[C@H]2O)[C@](C)(O)C[C@@H](C)CN(C)[C@H](C)[C@@H](O)[C@]1(C)O [Azithromycin, azithromycin]",MIC90,Streptococcus pneumoniae [13]; Penicillin intermediate (n = 17),1 µg/mL
same,MIC90,Streptococcus pneumoniae [13]; Penicillin resistant (n = 4),0.06 µg/mL
same,MIC90,Streptococcus pneumoniae [13]; Penicillin susceptible (n = 69),0.06 µg/mL
same,MIC50,"Streptococcus pneumoniae [14]; Streptococcus pneumoniae, Penicillin-intermediate S. pneumoniae (n = 24), read-out: MIC50",1 µg/mL
same,MIC90,"Streptococcus pneumoniae [14]; Streptococcus pneumoniae, Penicillin-intermediate S. pneumoniae (n = 24), read-out: MIC90",≥ 256 µg/mL
same,MIC50,"Streptococcus pneumoniae [14]; Streptococcus pneumoniae, Penicillin-susceptible S. pneumoniae (n = 107), read-out: MIC50",0.75 µg/mL
same,MIC90,"Streptococcus pneumoniae [14]; Streptococcus pneumoniae, Penicillin-susceptible S. pneumoniae (n = 107), read-out: MIC90",3 µg/mL
same,MIC50,Staphylococcus aureus; read-out: MIC50,1 µg/mL
same,MIC90,Staphylococcus aureus; read-out: MIC90,2 µg/mL
Teicoplanin,MIC Range,Streptococcus pneumoniae [14]; Penicillin-intermediate S. pneumoniae (n = 24),0.023-0.125
same,MIC50,Streptococcus pneumoniae [14]; [16],0.064 µg/mL
same,MIC90,Streptococcus pneumoniae [14]; [16],0.125 µg/mL
same,MIC Range,Streptococcus pneumoniae [14]; Penicillin-susceptible S. pneumoniae (n = 107),0.023-3
same,MIC50,Streptococcus pneumoniae [14]; [17],0.064 µg/mL
same,MIC90,Streptococcus pneumoniae [14]; [17],0.38 µg/mL
same,MIC50,Staphylococcus aureus,1 µg/mL
same,MIC90,Staphylococcus aureus,2 µg/mL
same,MIC Range,Staphylococcus aureus,0.5 to 8 µg/mL
same,MIC distribution (µg/ml) 0.06,Staphylococcus aureus; number of isolates with MIC 0.06 µg/ml,0
same,MIC distribution (µg/ml) 0.5,Staphylococcus aureus; number of isolates with MIC 0.5 µg/ml,26
same,MIC distribution (µg/ml) 1,Staphylococcus aureus; number of isolates with MIC 1 µg/ml,40
same,MIC distribution (µg/ml) 2,Staphylococcus aureus; number of isolates with MIC 2 µg/ml,17
same,MIC distribution (µg/ml) 4,Staphylococcus aureus; number of isolates with MIC 4 µg/ml,0
same,MIC distribution (µg/ml) 8,Staphylococcus aureus; number of isolates with MIC 8 µg/ml,2
same,MIC distribution (µg/ml) >64,Staphylococcus aureus; number of isolates with MIC >[…] µg/ml,0
same,MIC distribution (µg/ml) 16,Staphylococcus aureus; [18],0
same,MIC distribution (μg/ml) 32,Staphylococcus aureus; [18],0
same,MIC distribution (μg/ml) 64,Staphylococcus aureus; [18],0
same,MIC distribution (µg/ml) 0.125,Staphylococcus aureus; [19],0
same,MIC distribution (µg/ml) 0.25,Staphylococcus aureus; [19],0
same,MIC distribution (µg/ml) ≤0.03,Staphylococcus aureus; number of isolates with MIC ≤0.03 µg/ml,0
same,MIC50,Enterococcus faecalis; n = 81 isolates,0.5 µg/mL
same,MIC90,Enterococcus faecalis; n = 81 isolates,1 µg/mL
same,MIC Range,Enterococcus faecalis; n = 81 isolates,0.06 to 16 µg/mL
same,MIC distribution (µg/ml) 0.03,"Enterococcus faecalis; number of isolates at MIC 0.03 µg/ml, n = 81",0
same,MIC distribution (µg/ml) 0.06,"Enterococcus faecalis; number of isolates at MIC 0.06 µg/ml, n = 81",2
same,MIC distribution (µg/ml) 0.5,"Enterococcus faecalis; number of isolates at MIC 0.5 µg/ml, n = 81",35
same,MIC distribution (µg/ml) 1,"Enterococcus faecalis; number of isolates at MIC 1 µg/ml, n = 81",27
same,MIC distribution (µg/ml) 2,"Enterococcus faecalis; number of isolates at MIC 2 µg/ml, n = 81",4
same,MIC distribution (µg/ml) 4,"Enterococcus faecalis; number of isolates at MIC 4 µg/ml, n = 81",0
same,MIC distribution (µg/ml) 8,"Enterococcus faecalis; number of isolates at MIC 8 µg/ml, n = 81",0
same,MIC distribution (µg/ml) 16,"Enterococcus faecalis; number of isolates at MIC 16 µg/ml, n = 81",1
same,MIC distribution (µg/ml) 0.125,Enterococcus faecalis; [20],6
same,MIC distribution (µg/ml) 0.25,Enterococcus faecalis; [20],6
same,MIC distribution (µg/ml) ≤0.015,"Enterococcus faecalis; number of isolates at MIC ≤[…], n = 81",0
same,MIC distribution (µg/ml) ≥32,"Enterococcus faecalis; number of isolates at MIC ≥32 µg/ml, n = 81",0
same,MIC50,Enterococcus faecium; n = 14 isolates,0.5 µg/mL
same,MIC90,Enterococcus faecium; n = 14 isolates,1 µg/mL
same,MIC Range,Enterococcus faecium; n = 14 isolates,0.25 to 4 µg/mL
same,MIC distribution (µg/ml) 0.03,"Enterococcus faecium; number of isolates at MIC 0.03 µg/ml, n = 14",0
same,MIC distribution (µg/ml) 0.06,"Enterococcus faecium; number of isolates at MIC 0.06 µg/ml, n = 14",0
same,MIC distribution (µg/ml) 0.5,"Enterococcus faecium; number of isolates at MIC 0.5 µg/ml, n = 14",4
same,MIC distribution (µg/ml) 1,"Enterococcus faecium; number of isolates at MIC 1 µg/ml, n = 14",6
same,MIC distribution (µg/ml) 2,"Enterococcus faecium; number of isolates at MIC 2 µg/ml, n = 14",0
same,MIC distribution (µg/ml) 4,"Enterococcus faecium; number of isolates at MIC 4 µg/ml, n = 14",1
same,MIC distribution (µg/ml) 8,"Enterococcus faecium; number of isolates at MIC 8 µg/ml, n = 14",0
same,MIC distribution (µg/ml) 16,"Enterococcus faecium; number of isolates at MIC 16 µg/ml, n = 14",0
same,MIC distribution (µg/ml) 0.125,Enterococcus faecium; [21],0
same,MIC distribution (µg/ml) 0.25,Enterococcus faecium; [21],3
same,MIC distribution (µg/ml) ≤0.015,"Enterococcus faecium; number of isolates at MIC ≤[…], n = 14",0
same,MIC distribution (µg/ml) ≥32,"Enterococcus faecium; number of isolates at MIC ≥32 µg/ml, n = 14",0
